# According to patent US20060069132A1, “Azolecarboxamide herbicides” (priority 2004, published 2006):
# Tests used:
# downy bromegrass = experiment: Test E pre-/postemergence herbicide test; type: in vivo, Bromus tectorum
# How it was run: (§1)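 Greenhouse response scored visually 12 to 14 days after treatment versus controls, 0 meaning no effect and 100 complete control. Compounds, formulated with surfactant in a non-phytotoxic solvent blend, were sprayed either preemergence after sowing or postemergence at the 1- to 4-leaf stage (2 to 18 cm).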
# [1] = system: smallflower umbrella sedge; experiment: Test D flooded paddy test; type: in vivo, Cyperus difformis; conditions: 21 days, scale 0 to 100
# Text: (§2) Three plastic pots (ca. 16-cm diameter) per rate were partially filled with sterilized Tama silt loam soil comprising a 35:50:15 ratio of sand, silt and clay and 2.6% organic matter. Separate plantings for each of the three pots were as follows. Seeds from the U.S. of ducksalad (Heteranthera limosa (Sw.) Willd.), smallflower umbrella sedge (Cyperus difformis L.) and purple redstem (Ammannia coccinea Rottb.), were planted into one 16-cm pot for each rate. Seeds from the U.S. of rice flatsedge (Cyperus iria L.), bearded sprangletop (Leptochloa fascicularis (Lam.) Gray), one stand of 9 or 10 water seeded rice seedlings (Oryza sativa L. cv. ‘Japonica—M202’), and one stand of 6 transplanted rice seedlings (Oryza sativa L. cv. ‘Japonica—M202’) were planted into one 16-cm pot for each rate. Seeds from the U.S. of barnyardgrass (Echinochloa crus-galli (L.) Beauv.), late watergrass (Echinochloa oryzicola Vasinger), early watergrass (Echinochloa oryzoides (Ard.) Fritsch) and junglerice (Echinochloa colona (L.) Link) were planted into one 16-cm pot for each rate. Plantings were sequential so that crop and weed species were at the 2.0 to 2.5-leaf stage at time of treatment.
# (§3) Potted plants were grown in a greenhouse with day/night temperature settings of 29.5/26.7° C., and supplemental balanced lighting was provided to maintain a 16-hour photoperiod. Test pots were maintained in the greenhouse until test completion.
# (§4) At time of treatment, test pots were flooded to 3 cm above the soil surface, treated by application of test compounds directly to the paddy water, and then maintained at that water depth for the duration of the test. Effects of treatments on rice and weeds were visually evaluated by comparison to untreated controls after 21 days. Plant response ratings are reported on a 0 to 100 scale; where 0 is no effect and 100 is complete control. A dash (-) response means no test result.
# early watergrass = experiment: Test D flooded paddy test; type: in vivo, Echinochloa oryzoides; conditions: 21 days, scale 0 to 100
# Text: as §2, §3, §4
# prickly sida = experiment: Test E pre-/postemergence herbicide test; type: in vivo, Sida spinosa
# How it was run: as §1
# common chickweed = experiment: Test E pre-/postemergence herbicide test; type: in vivo, Stellaria media
# How it was run: as §1
# Italian ryegrass = experiment: Test E pre-/postemergence herbicide test; type: in vivo, Lolium multiflorum
# How it was run: as §1
# mustard = experiment: Test E pre-/postemergence herbicide test; type: in vivo, Brassica nigra
# How it was run: as §1
# bermudagrass = experiment: Test E pre-/postemergence herbicide test; type: in vivo, Cynodon dactylon
# How it was run: as §1
# pitted morningglory = experiment: Test E pre-/postemergence herbicide test; type: in vivo, Ipomoea lacunosa
# How it was run: as §1
# common sowthistle = experiment: Test E pre-/postemergence herbicide test; type: in vivo, Sonchus oleraceous
# How it was run: as §1
# [2] = Postemergence, 500 g ai/ha, scale 0 to 100
# [3] = Postemergence, 250 g ai/ha, scale 0 to 100
# [4] = Preemergence, 62 g ai/ha, scale 0 to 100
# [5] = Preemergence, 125 g ai/ha, scale 0 to 100
# [6] = Preemergence, 250 g ai/ha, scale 0 (no effect) to 100 (complete control)
# [7] = Preemergence, 500 g ai/ha, scale 0 (no effect) to 100 (complete control)
# [8] = postemergence, 125 g ai/ha, scale 0 to 100
smiles,measurement,setting,value
CCNC(=O)c1ccnc(NC(=O)c2cc(C(C)(C)C)nn2CC)c1 [Compound 152],"Plant response rating, Bromegrass, Downy",downy bromegrass; [2],80
same,"Plant response rating, Bromegrass, Downy",downy bromegrass; [3],75
same,"Plant response rating, Bromegrass, Downy",downy bromegrass; [4],0
same,"Plant response rating, Bromegrass, Downy",downy bromegrass; [5],30
same,"Plant response rating, Bromegrass, Downy",downy bromegrass; [6],60
same,"Plant response rating, Bromegrass, Downy",downy bromegrass; [7],90
same,"Plant response rating, Sedge, Umbrella",[1]; 8 g ai/ha,0
same,"Plant response rating, Sedge, Umbrella",[1]; 16 g ai/ha,70
same,"Plant response rating, Sedge, Umbrella",[1]; 32 g ai/ha,75
same,"Plant response rating, Sedge, Umbrella",[1]; 64 g ai/ha,85
same,"Plant response rating, Sedge, Umbrella",[1]; 125 g ai/ha,95
same,"Plant response rating, Watergrass, Early",early watergrass; 8 g ai/ha,0
same,"Plant response rating, Watergrass, Early",early watergrass; 16 g ai/ha,0
same,"Plant response rating, Watergrass, Early",early watergrass; 32 g ai/ha,0
same,"Plant response rating, Watergrass, Early",early watergrass; 64 g ai/ha,0
same,"Plant response rating, Watergrass, Early",early watergrass; 125 g ai/ha,45
same,"Plant response rating, Prickly Sida",prickly sida; [2],85
same,"Plant response rating, Prickly Sida",prickly sida; [3],60
same,"Plant response rating, Prickly Sida",prickly sida; [4],20
same,"Plant response rating, Prickly Sida",prickly sida; [5],20
same,"Plant response rating, Prickly Sida",prickly sida; [6],60
same,"Plant response rating, Prickly Sida",prickly sida; [7],95
same,"Plant response rating, Chickweed",common chickweed; [2],100
same,"Plant response rating, Chickweed",common chickweed; [4],90
same,"Plant response rating, Chickweed",common chickweed; [5],95
same,"Plant response rating, Chickweed",common chickweed; [6],100
same,"Plant response rating, Chickweed",common chickweed; [7],100
same,"Plant response rating, Ryegrass, Italian",Italian ryegrass; [2],90
same,"Plant response rating, Ryegrass, Italian",Italian ryegrass; [3],90
same,"Plant response rating, Ryegrass, Italian",Italian ryegrass; [4],20
same,"Plant response rating, Ryegrass, Italian",Italian ryegrass; [5],50
same,"Plant response rating, Ryegrass, Italian",Italian ryegrass; [6],80
same,"Plant response rating, Ryegrass, Italian",Italian ryegrass; [7],95
same,"Plant response rating, Ryegrass, Italian",Italian ryegrass; [8],90
same,"Plant response rating, Black Mustard",mustard; [2],100
same,"Plant response rating, Black Mustard",mustard; [3],100
same,"Plant response rating, Black Mustard",mustard; [4],90
same,"Plant response rating, Black Mustard",mustard; [5],90
same,"Plant response rating, Black Mustard",mustard; [6],95
same,"Plant response rating, Black Mustard",mustard; [7],100
same,"Plant response rating, Bermudagrass",bermudagrass; [2],75
same,"Plant response rating, Bermudagrass",bermudagrass; [3],75
same,"Plant response rating, Bermudagrass",bermudagrass; [4],70
same,"Plant response rating, Bermudagrass",bermudagrass; [5],90
same,"Plant response rating, Bermudagrass",bermudagrass; [6],95
same,"Plant response rating, Bermudagrass",bermudagrass; [7],95
same,"Plant response rating, Bermudagrass",bermudagrass; [8],40
same,"Plant response rating, Morningglory",pitted morningglory; [2],30
same,"Plant response rating, Morningglory",pitted morningglory; [3],20
same,"Plant response rating, Morningglory",pitted morningglory; [4],10
same,"Plant response rating, Morningglory",pitted morningglory; [5],10
same,"Plant response rating, Morningglory",pitted morningglory; [6],40
same,"Plant response rating, Morningglory",pitted morningglory; [7],40
same,"Plant response rating, Morningglory",pitted morningglory; [8],10
same,"Plant response rating, Sowthistle",common sowthistle; [2],100
same,"Plant response rating, Sowthistle",common sowthistle; [3],90
same,"Plant response rating, Sowthistle",common sowthistle; [4],80
same,"Plant response rating, Sowthistle",common sowthistle; [5],80
same,"Plant response rating, Sowthistle",common sowthistle; [6],95
same,"Plant response rating, Sowthistle",common sowthistle; [7],95
